Reference: patent publication US10954252B1, “Inhibitors of human immunodeficiency virus replication” (ViiV HEALTHCARE UK (NO.5) LIMITED, priority 2017, dated 2021)
pEC50: −log10 of the molar value.

Assays:
[1] = system: recombinant NL4-3 virus (nef section replaced with Renilla luciferase gene) in MT-2 cells; assay: HIV cell culture assay (antiviral activity, luciferase readout); assay type: cell-based; details: MT-2 cells infected for 4-5 days with recombinant NL4-3 luciferase virus
Procedure, shortened: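 Serially diluted compounds were present throughout a 4-5 day infection of MT-2 cells by recombinant NL4-3 whose nef region partly encodes Renilla luciferase. Antiviral activity was taken from live-cell luciferase signal, with the 50% effective concentration fitted by the exponential median effect equation.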

[2] = Compound cytotoxicity, XTT-based colorimetric assay; assay type: cell-based; details: human, uninfected MT2 cells
Procedure, shortened: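 XTT colorimetric read-out on day 4 gave CC50 values, using MT2 cells left uninfected but otherwise handled as in the antiviral assay.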

| SMILES | pEC50 ([1]; Table 1a) | CC50 at 4 days ([2]; Table 1a, day 4, XTT) [µM] | pEC50 ([1]; Renilla, NL43, Table 1a) | pEC50 ([1]; Renilla, NL43, Table 1) | CC50 at 4 days ([2]; Table 1, day 4, XTT) [µM] |
| --- | --- | --- | --- | --- | --- |
| Cc1cccc2nc([C@H](Cc3cc(F)cc(F)c3)NC(=O)Cn3ccc(C4CC4)n3)n(-c3ccc(Cl)c4c(NS(C)(=O)=O)nn(C)c34)c(=O)c12 (single isomer, unassigned) [Example 133] | 6.90 | > 1 | – | – | – |
| CN1Cc2ccc(-c3cc4[nH]ncc4nc3[C@H](Cc3cc(F)cc(F)c3)NC(=O)Cn3nc(C(F)F)c4c3C(F)(F)[C@@H]3C[C@H]43)cc2C1=O [Example 23, 2-((3bS,4aR)-3-(difluoromethyl)-5,5-difluoro-3b,4,4a,5-tetrahydro-1H-cyclopropa[3,4]cyclopenta[1,2-c]pyrazol-1-yl)-N—((S)-2-(3,5-difluorophenyl)-1-(6-(2-methyl-3-oxoisoindolin-5-yl)-1H-pyrazolo[4,3-b]pyridin-5-yl)ethyl)acetamide] | – | 10 | 7.66 | – | – |
| COc1ccc2c(=O)n(-c3ccc(Cl)c4c(NS(C)(=O)=O)nn(C)c34)c(C(Cc3cc(F)cc(F)c3)NC(=O)Cn3nc(C(F)F)c4c3C(F)(F)[C@@H]3C[C@H]43)nc2c1F (some centres unmarked) [Example 75] | – | > 1 | 6.96 | – | – |
| COc1ccc2c(=O)n(-c3ccc(Cl)c4c(NS(C)(=O)=O)nn(CC(F)F)c34)c([C@H](Cc3cc(F)cc(F)c3)NC(=O)Cn3ccc(C4CC4)n3)nc2n1 (atropisomer, axis not shown) [Example 55.1, N-[(1S)-1-{3-[4-chloro-1-(2,2-difluoroethyl)-3-methanesulfonamido-1H-indazol-7-yl]-7-methoxy-4-oxo-3H,4H-pyrido[2,3-d]pyrimidin-2-yl}-2-(3,5-difluorophenyl)ethyl]-2-(3-cyclopropyl-1H-pyrazol-1-yl)acetamide] | 7.55 | > 1 | – | – | – |
| Cn1nc(NS(C)(=O)=O)c2c(Cl)ccc(-c3cc4[nH]ncc4nc3[C@H](Cc3cc(F)cc(F)c3)NC(=O)Cn3nc(C(F)F)c4c3C(F)(F)[C@@H]3C[C@H]43)c21 [Example 3.7, N—((S)-1-(6-(4-chloro-1-methyl-3-(methylsulfonamido)-1H-indazol-7-yl)-1H-pyrazolo[4,3-b]pyridin-5-yl)-2-(3,5-difluorophenyl)ethyl)-2-((3bS,4aR)-3-(difluoromethyl)-5,5-difluoro-3b,4,4a,5-tetrahydro-1H-cyclopropa[3,4]cyclopenta[1,2-c]pyrazol-1-yl)acetamide] | – | – | – | 8.92 | 33.9 |
| Cn1nc(NS(C)(=O)=O)c2c(Cl)ccc(-n3c([C@H](Cc4cc(F)cc(F)c4)NC(=O)Cn4nc(C(F)F)c5c4C(F)(F)[C@@H]4C[C@H]54)nc4ccc(Cl)c(F)c4c3=O)c21 (mixture of isomers) [Example 175, N—((S)-1-(6-chloro-3-(4-chloro-1-methyl-3-(methylsulfonamido)-1H-indazol-7-yl)-5-fluoro-4-oxo-3,4-dihydroquinazolin-2-yl)-2-(3,5-difluorophenyl)ethyl)-2-((3bS,4aR)-3-(difluoromethyl)-5,5-difluoro-3b,4,4a,5-tetrahydro-1H-cyclopropa[3,4]cyclopenta[1,2-c]pyrazol-1-yl)acetamide] | – | > 1 | 7.96 | – | – |
| COc1ccc2c(=O)n(-c3ccc(Cl)c4c(NS(=O)(=O)C5CC5)nn(CC(F)F)c34)c([C@H](Cc3cc(F)cc(F)c3)NC(=O)Cn3ccc(C4CC4)n3)nc2n1 (single isomer, unassigned) [Example 57.2] | – | > 1 | 9.48 | – | – |
| O=C(Cn1nc(C(F)F)c2c1C(F)(F)[C@@H]1C[C@H]21)N[C@@H](Cc1cc(F)cc(F)c1)c1nc2cc[nH]c2cc1-c1ccc(S(=O)(=O)N2CCOCC2)cc1 [Example 65, 2-((3bS,4aR)-3-(difluoromethyl)-5,5-difluoro-3b,4,4a,5-tetrahydro-1H-cyclopropa[3,4]cyclopenta[1,2-c]pyrazol-1-yl)-N—((S)-2-(3,5-difluorophenyl)-1-(6-(4-(morpholinosulfonyl)phenyl)-1H-pyrrolo[3,2-b]pyridin-5-yl)ethyl)acetamide] | – | 2 | 8.69 | – | – |
| Cn1nc(NS(C)(=O)=O)c2c(Cl)ccc(-n3c([C@H](Cc4cc(F)cc(F)c4)NC(=O)Cn4nc(C(F)F)c5c4C(F)(F)[C@@H]4C[C@H]54)nc4cc(S(C)(=O)=O)ccc4c3=O)c21 (mixture of isomers) [Example 199, N—((S)-1-(3-(4-chloro-1-methyl-3-(methylsulfonamido)-1H-indazol-7-yl)-7-(methylsulfonyl)-4-oxo-3,4-dihydroquinazolin-2-yl)-2-(3,5-difluorophenyl)ethyl)-2-((3bS,4aR)-3-(difluoromethyl)-5,5-difluoro-3b,4,4a,5-tetrahydro-1H-cyclopropa[3,4]cyclopenta[1,2-c]pyrazol-1-yl)acetamide] | 7.48 | > 1 | – | – | – |
| Cn1nc(NS(C)(=O)=O)c2c(Cl)ccc(-n3c(C(Cc4cc(F)cc(F)c4)NC(=O)Cn4nc(C(F)F)c5c4C(F)(F)[C@@H]4C[C@H]54)nc4nc(C#N)ccc4c3=O)c21 (mixture of isomers) [Example 40.1, N-(1-(3-(4-chloro-1l-methyl-3-(methylsulfonamido)-1H-indazol-7-yl)-7-cyano-4-oxo-3,4-dihydropyrido[2,3-d]pyrimidin-2-yl)-2-(3,5-difluorophenyl)ethyl)-2-((3bS,4aR)-3-(difluoromethyl)-5,5-difluoro-3b,4,4a,5-tetrahydro-1H-cyclopropa[3,4]cyclopenta[1,2-c]pyrazol-1-yl)acetamide] | – | > 1 | 9.24 | – | – |
| CC(C)c1ccc(-c2cc3[nH]ccc3nc2[C@H](Cc2cc(F)cc(F)c2)NC(=O)Cn2nc(C(F)F)c3c2C(F)(F)[C@@H]2C[C@H]32)cn1 [Example 81, 2-((3bS,4aR)-3-(difluoromethyl)-5,5-difluoro-3b,4,4a,5-tetrahydro-1H-cyclopropa[3,4]cyclopenta[1,2-c]pyrazol-1-yl)-N—((S)-2-(3,5-difluorophenyl)-1-(6-(6-isopropylpyridin-3-yl)-1H-pyrrolo[3,2-b]pyridin-5-yl)ethyl)acetamide] | – | 10 | 7.87 | – | – |
| Cn1nc(NS(C)(=O)=O)c2c(Cl)ccc(-c3nc4ccccc4nc3[C@@H](Cc3cc(F)cc(F)c3)NC(=O)Cn3nc(C(F)F)c4c3C(F)(F)[C@@H]3C[C@H]43)c21 [Example 155, N—((R)-1-(3-(4-chloro-1-methyl-3-(methylsulfonamido)-1H-indazol-7-yl)quinoxalin-2-yl)-2-(3,5-difluorophenyl)ethyl)-2-((3bS,4aR)-3-(difluoromethyl)-5,5-difluoro-3b,4,4a,5-tetrahydro-1H-cyclopropa[3,4]cyclopenta[1,2-c]pyrazol-1-yl)acetamide] | – | > 10 | 7.45 | – | – |
| CS(=O)(=O)Nc1nn(CC(F)F)c2c(-n3c([C@H](Cc4cc(F)cc(F)c4)NC(=O)Cn4nc(C(F)F)c5c4C(F)(F)C4CC54)nc4ncccc4c3=O)ccc(Cl)c12 (single isomer, unassigned) [Example 14.1] | – | – | – | 7.31 | > 10 |
| O=C(Cn1nc(C(F)F)c2c1C(F)(F)[C@@H]1C[C@H]21)N[C@@H](Cc1cc(F)cc(F)c1)c1nc2cn[nH]c2cc1-c1cccc2c1CNC2=O [Example 10.13, 2-((3bS,4aR)-3-(difluoromethyl)-5,5-difluoro-3b,4,4a,5-tetrahydro-1H-cyclopropa[3,4]cyclopenta[1,2-c]pyrazol-1-yl)-N—((S)-2-(3,5-difluorophenyl)-1-(6-(1-oxoisoindolin-4-yl)-1H-pyrazolo[4,3-b]pyridin-5-yl)ethyl)acetamide] | – | – | – | 7.92 | > 10 |
| O=C(Cc1c[nH]c2ccc(O)cc12)N[C@@H](Cc1cc(F)cc(F)c1)c1nc2ncccc2c(=O)n1-c1ccc2scnc2c1 [Example 10.23] | – | – | – | 8.57 | > 10 |
| Cc1ccc2c(=O)n(-c3ccc(Cl)c4c(NS(C)(=O)=O)nn(C)c34)c([C@H](Cc3cc(F)cc(F)c3)NC(=O)Cn3nc(C(F)F)c4c3C(F)(F)[C@@H]3C[C@H]43)nc2n1 (mixture of isomers) [Example 41.2, N-[(1S)-1-[3-(4-chloro-3-methanesulfonamido-1-methyl-1H-indazol-7-yl)-7-methyl-4-oxo-3H,4H-pyrido[2,3-d]pyrimidin-2-yl]-2-(3,5-difluorophenyl)ethyl]-2-[(2S,4R)-9-(difluoromethyl)-5,5-difluoro-7,8-diazatricyclo[4.3.0.0^2,4]nona-1(6),8-dien-7-yl]acetamide] | – | > 10 | 10.66 | – | – |
| NC(=O)c1cc(-c2cc3[nH]ncc3nc2[C@H](Cc2cc(F)cc(F)c2)NC(=O)Cn2nc(C(F)F)c3c2C(F)(F)[C@@H]2C[C@H]32)ccc1F [Example 10.6, 5-(5-((S)-1-(2-((3bS,4aR)-3-(difluoromethyl)-5,5-difluoro-3b,4,4a,5-tetrahydro-1H-cyclopropa[3,4]cyclopenta[1,2-c]pyrazol-1-yl)acetamido)-2-(3,5-difluorophenyl)ethyl)-1H-pyrazolo[4,3-b]pyridin-6-yl)-2-fluorobenzamide] | – | – | – | 7.80 | > 10 |
| COc1c(F)cc2c(=O)n(-c3ccc(Cl)c4c(NS(C)(=O)=O)nn(C)c34)c([C@H](Cc3cc(F)cc(F)c3)NC(=O)Cn3nc(C(F)F)c4c3C(F)(F)[C@@H]3C[C@H]43)nc2c1F (mixture of isomers) [Example 114] | – | > 1 | 10.15 | – | – |
| Cn1nc(NS(C)(=O)=O)c2c(Cl)ccc(-n3c([C@H](Cc4cc(F)cc(F)c4)NC(=O)Cn4nc(C(F)F)c5c4C(F)(F)[C@@H]4C[C@H]54)nc4ccc(F)c(Cl)c4c3=O)c21 (single isomer, unassigned) [Example 160] | 9.74 | > 1 | – | – | – |
